According to US20240400572A1, “COMPOUNDS AND METHODS FOR TREATING CANCERS THAT ARE MGMT DEFICIENT REGARDLESS OF MMR STATUS” (Yale University, priority 2021, published 2024):
Entries after “also recorded” stand apart in the source; their conditions may differ.

What was measured:
[1] = system: LN229 WT and LN229-MSH2^− flank tumors; experiment: Xenograft Experiments (FIG. 11); assay type: in vivo, mouse; details: 5 mg/kg gavage, Mondays, Wednesdays and Fridays for 3 weeks
Experimental: Xenograft Experiments (FIG. 11): All animal studies were approved by the Institutional Animal Use and Care Committee and performed in accordance with the Guide for the Care and Use of Laboratory Animals. LN229 WT and LN229-MSH2^− cell lines were maintained in DMEM media supplemented with 10% fetal bovine serum. Three-four-week-old female athymic nude Foxnnu mice were obtained from Envigo and each mouse was inoculated subcutaneously with tumor cells (4.5-5×10^6) in 0.1 ml of PBS with Matrigel (1:1). Wild type cells were injected on the right flank and mutant cells were injected on the left flank. The tumors were then grown to a mean size of approximately 50-100 mm3 and the mice were then split into groups and treated as detailed in FIG. 7. Gavage doses of 5 mg/kg of KL-50 or TMZ were prepared by diluting stocks in DMSO with 10% cyclodextrin. Compound was administered each day of dosing at a volume of 100 μL/mouse. Mice were treated for 3 weeks with dosing on Mondays, Wednesdays and Fridays. Tumors were measured 3 times a week during treatment and during the washout period of 2 weeks. Xenograft tumors were measured by calipers and volume was calculated using the equation for ellipsoid volume: Volume=0.523×(length)×(width)^2. Statistical Analysis: Analysis of variance (ANOVA) was used to test for significant differences between groups. Post-hoc Bonferroni multiple comparison test analysis was used to determine significant differences among means. All statistical analysis was accomplished using Graph Pad Prism 8.2.0 software.

[2] = system: LN229 MGMT+/−, MMR+/− cells; experiment: Cell cycle analysis; assay type: cell-based, human; details: 20 μM, 24 to 48 h; cell status given in the value
Experimental: Cell Cycle Analysis. Cell cycle analysis was performed using integrated Hoechst nucleic acid dye fluorescence. Briefly, integrated Hoechst fluorescence intensity was log 2 transformed and histograms from DMSO-treated cells were used to identify the centers of the 2N and 4N DNA peaks. These values were used to normalize the 2N DNA peak to 1 and the 4N DNA peak to 2. Cells were then classified by normalized log 2 DNA content as GI (0.75-1.25), S (1.25-1.75), or G2 (1.75-2.5) phase cells. The percentage of cells within each phase of the cell cycle was determined for each treatment condition. The three sets of Hoechst-stained cells corresponding to the three separate DNA foci stains were treated as three independent analyses.

[3] = system: LN229 MGMT−/MMR+ and LN229 MGMT−/MMR− (or MGMT−/MSH6−) flank tumors; experiment: Murine flank tumor models; assay type: in vivo; details: for median OS: Kaplan-Meier
Experimental: Mouse Protocols for Flank Studies. A mouse tumor model was established by subcutaneously implanting human LN229 (MGMT−/MMR+) or LN229 (MGMT−/MMR−) cells. Cells were cultured as a monolayer in DMEM+10% FBS (Thermo Fisher) at 37° C. in a humidified atmosphere with 5% CO2 and passaged between one and three days prior to implantation and media was replaced every 2-3 days as needed to maintain cell viability. Cells were not allowed to exceed 80% confluency. On the day of implantation, cells were trypsinized, washed with complete media and pelleted by centrifugation at 1200 rpm for 5 minutes. The supernatant was decanted, and cells were washed three times with sterile PBS and pelleted by centrifugation. During the final centrifugation, viability was determined using trypan blue exclusion. Cells were resuspended in sterile PBS and diluted 1:1 in Matrigel (Corning, Cat #47743-716) for a final concentration of 5×10^6 cells/100 μL. 5 million cells were injected into the flank of female nude mice (Envigo, Hsd:Athymic Nude-Foxn1^nu, 3-4 weeks age, 15 g). Once tumors reached a minimum volume of 100 mm^3, mice were randomized and administered either KL-50 (4a; 5 mg/kg MWF×3 weeks), TMZ (1a; 5 mg/kg MWF×3 weeks), or vehicle (10% cyclodextrin) by oral gavage. Caliper measurements were obtained during the dosing period and at least two weeks following treatment. Mice were euthanized if body weight loss exceeded 20% or if tumor volume increased to greater than 2000 mm^3. Kaplan-Meier analysis was used to evaluate survival rate based on death or removal from study.
In a second study, mice were randomized and administered either KL-50 (4a) or vehicle (10% cyclodextrin) by oral gavage or intraperitoneal injection on either M-F×1 or MWF×3 cycles at 5, 15, or 25 mgs/kg. Caliper measurements were obtained during the dosing period and at least two weeks following treatment. Mice were euthanized if body weight loss exceeded 20% or if tumor volume increased to greater than 2000 mm^3.
The third study involved MGMT−/MMR+ and MGMT−/MSH6− (shMSH6) LN229 cells. Mice tumors were allowed to grow to a larger average starting volume of ˜350 mm^3 before they were randomized and administered either KL-50 (4a; 25 mg/kg MWF×3 weeks) or vehicle (10% cyclodextrin) by oral gavage. Caliper measurements were obtained during the dosing period and at least two weeks following treatment. Mice were euthanized if body weight loss exceeded 20% or if tumor volume increased to greater than 3000 mm^3.

[4] = LN229 MGMT−/MMR− flank tumor-bearing mice, 5 mg/kg P.O. MWF×3 weeks

| Structure (SMILES) | activity in MGMT−/MMR (MSH2)+ tumors (in words) [1] | activity in MGMT−/MMR (MSH2)− tumors (in words) [1] | cell cycle arrest (in words) [2] | tumor growth, MGMT−/MMR+ flank tumors (in words) ([3]; 5 mg/kg P.O. MWF×3 weeks) | tumor growth, MGMT−/MMR− flank tumors (in words) ([3]; 5 mg/kg P.O. MWF×3 weeks) | increase in median OS vs TMZ [3, 4] | median OS [3, 4] | body weight (in words) ([3]; LN229 flank tumor experiments, 5 mg/kg P.O. MWF×3 weeks) | efficacy and toxicity over regimens (in words) ([3]; MGMT−/MMR+ and MGMT−/MMR− flank tumors, 5, 15, 25 mg/kg, MWF×3 weeks or M-F×1 week, PO or IP) | growth of large tumors (in words) ([3]; ~350-400 mm^3 MGMT−/MMR+ and MGMT−/MSH6− tumors, 25 mg/kg PO MWF×3 weeks) |
| --- | --- | --- | --- | --- | --- | --- | --- | --- | --- | --- |
| NC(=O)c1ncn2c(=O)n(CCF)nnc12 [KL-50, 3-(2-fluoroethyl)-4-oxo-3H,4H-imidazo[4,3-d][1,2,3,5]tetrazine-8-carboxamide] | comparable activity to TMZ | surprisingly effective | increasing G2 arrest on progression from 24 to 48 h in MGMT−/MMR+ cells; also recorded: attenuated G2 arrest in MGMT−/MMR− cells; also recorded: moderate G2 arrest in MGMT+/MMR+ cells | statistically non-inferior to TMZ (1a) | potently suppressed tumor growth | greater than 5 week | greater than 15 weeks | no significant changes in body weight | effective and non-toxic; also recorded: equal efficacy with no observable increases in toxicity | potently suppressed the growth |
| Cn1nnc2c(C(N)=O)ncn2c1=O [TMZ, temozolomide, reference compound] |  | ineffective | This effect in MGMT−/MMR− cells was absent; also recorded: moderate G2 arrest in MGMT+/MMR+ cells | suppressed tumor growth | no efficacy |  | 10 weeks |  |  |  |
